Values quoted from earlier work, collected in patent US20250144250A1, “PH-SENSITIVE FLUOROPHORES” (The General Hospital Corporation, priority 2022, published 2025).

Details: in DMSO; cited from earlier work

In the case of `CC1(C)C(/C=C/C=C/C=C/C=C2\N(CCCCS(=O)(=O)O)c3ccc4ccccc4c3C2(C)C)=[N+](CCCCS(=O)(=O)[O-])c2ccc3ccccc3c21` [ICG, indocyanine green], the “fluorescence QY of calibration standard” value is given as 13%.
